Results on 90 molecules are retold here after a melting point compilation (Tetko et al.; mined from patent text by program, amines drawn as free bases though some values may be those of a salt).

Bounds are passed on as bounds.

Turning to `CS(=O)(=O)N1CCN(c2ccc(OC[C@H]3CCn4cc([N+](=O)[O-])nc4O3)cc2)CC1`, the melting point (commonly the temperature, or range, at which the solid turns liquid) was in the range of 149 to 151 °C.
The molecule `COc1c(C(=O)O)[nH]c2cccc(C)c12` registered a melting point of 136 °C.
For `O=C(CN1C(=O)CC1S(=O)c1ccccc1)NCCCCCCc1ccc(Cl)cc1` (stereo not given) the value was 113 to 115 °C; for `CC(C)N(C(=S)NC(=O)c1ccccc1)c1ccc2c(c1)OCO2`, 152 to 154 °C.
As for `Oc1cccc(C2CCCN2Cc2ccccc2)c1` (stereo not given), the melting point was 113 to 115 °C.
In turn, `CCCC(=O)Nc1cc(Sc2ccccc2)ccc1NC(=NC(=O)OC)NC(=O)OC` gave a melting point of 180 °C.
For `COc1ccc(C2=CC(=Nc3c(C)cc(C)cc3C)N(C)CN2)cc1OC` the value was 165 to 166 °C; for `COCCc1nc2c(N)nc3c(c2n1CCOCCNC(=O)Nc1ccccc1)CCCC3`, 180 to 182 °C.
With `O=C(O)Cc1ccc(CC2CCCCC2=O)cc1` (stereo not given) the figure was 71.5 to 72.5 °C; with `CC(=O)OC1CCC2C3CCC4CC(O[Si](C)(C)C(C)(C)C)CCC4C3CCC12C` (stereo not given), 89 to 90 °C; with `CC1(O)CC(=O)OC(c2ccc(OCc3ccccc3)cc2)C1Br` (stereo not given), 157 to 162 °C.
With `CC(=O)Oc1cc(C)cc(C(=O)N[C@@H](Cc2ccccc2)[C@H](OC(C)=O)C(=O)O)c1C` the figure was 185 to 186 °C; with `CC(=NC(=Nc1ccccc1)N1CCOCC1)NCc1ccccc1`, 126 to 129 °C.
In the case of `Cc1ccc2[nH]nc(S(C)=O)c(=O)c2c1` (stereo not given), the melting point lay within 265 to 267 °C.
For `OC1CCCC(n2c(NC3CC3)nc3cc(Cl)c(Cl)cc32)C1O` (stereo not given) the value was more than 25 °C; for `CC(C#CCCCc1ccccc1)N(O)C(N)=O` (stereo not given), 78 to 81 °C; for `Nc1nc(F)c(OC(F)F)c(Cl)n1`, 77 to 80 °C.
For `CC/C(=C\C#CC(O)(C(F)(F)F)C(F)(F)F)c1cccc(CCc2ccc(CO)c(CO)c2)c1` the value was 123 °C.
Take `Nc1ccc(NC(=O)CCC(=O)O)cc1`: the melting point is 180 to 181 °C.
Molecule `Cc1c(NC(=O)c2ccc(OC[C@@H]3CCCO3)cc2F)ccc2cc(CNCC(C)(C)O)n(C)c12` had a melting point of 132 to 133 °C.
With `CCc1c2c(c(C)c(C)c1N1CCN(c3ccc(OC)cc3)CC1)OC(C)(C)C2=O` the figure was 133 to 134 °C; with `O=C(c1ccc2ncccc2c1)c1ccc2[nH]c(=O)nc(-c3cccc(Cl)c3)c2c1`, more than 260 °C; with `O=C(O)C1CC(=Cc2ccccc2)CC1C(=O)O` (stereo not given), 172 °C.
For `CCCNC(=O)NS(=O)(=O)N1CCC(CCNC(=O)c2cc(Cl)ccc2OC)CC1` the value was 140 to 142 °C; for `CSc1sc(C(C)=O)cc1[N+](=O)[O-]`, 191 to 193 °C.
As for `N#Cc1ccc(OCc2ccsc2)cc1OC(C(=O)O)c1cccc(Cl)c1` (racemic), the melting point was 134 to 136 °C.
For `CCn1cc(C(=O)NCCc2ccncc2)c(=O)c2cc(F)cc(C)c21` the value was 243 to 245 °C; for `COc1ccc(Cn2c(=O)n([C@H]3CC[C@H](O)CC3)c3ncc(C(F)(F)F)cc32)cc1OC`, 128 to 130 °C; for `CCCOC(=O)c1cc(NC(=O)c2ccccc2C)ccc1Cl`, 103 to 105 °C.
For `Cc1cc2c(cc1-c1ccncc1)C(=O)C(=O)N2` the value was 292 to 294 °C.
In turn, `COc1ccc(CCC(=O)O)c(Cl)c1Cl` gave a melting point of 141 to 143 °C.
As for `CNC(=O)ON=C1SC(C)(C)N=C1C`, the melting point lay within 90 to 92 °C.
For `Cc1ccc(S(=O)(=O)NC(=O)C(c2cc3c(cc2Cl)OCO3)c2cn(C)c3cc(CO)ccc23)cc1` (stereo not given) the value was 207 to 209 °C; for `C=NOC(c1ccc(C(=O)O)cc1)c1c(C)nn(C)c1Oc1ccccc1` (stereo not given), 183 °C.
Consider `O=C(NCCO)c1cccc(-c2ccc3cnn(-c4ccc(Cl)cc4Cl)c3n2)c1`, for which the melting point was in the range of 169 to 170 °C.
With `CCOC(=O)C1C(=O)C(C(=O)c2ccc(Cl)cc2[N+](=O)[O-])C(=O)CC1CC(C)SCC` (stereo not given) the figure was 102 to 104 °C; with `CNc1cc(OC)cc(NCCOC)c1[N+](=O)[O-]`, 84 °C; with `CCOC(=O)c1cn(-c2nc(N)c(F)cc2C)c2c(Cl)c(F)c(F)cc2c1=O`, 198 to 202 °C.
With `CC(=O)c1ccc2c(c1)C(n1ccccc1=O)C(O)C(C)(C)O2` (stereo not given) the figure was 260 °C; with `CN1CCN2c3ncc(Br)cc3Cc3ccccc3C2C1` (stereo not given), 126 to 128 °C; with `CCCNC(=O)C(C)(C)Cc1ccc2c(c1)c(Cc1ccc(C(=O)NS(=O)(=O)c3ccccc3C)cc1OC)cn2CCC`, 102 to 112 °C.
As for `Cc1ccc(C2c3c(C)c4c(c(C)c3OC2(C)C)CCN4)cc1` (stereo not given), the melting point is 135 to 136 °C.
With `CC(O)(c1nc2ccc(S(=O)(=O)c3ccccc3)cc2c(=O)[nH]1)C(F)(F)F` (stereo not given) the figure was 202 to 204 °C; with `C=CCOc1ccc(C=CC(=O)c2c(OC)cc(OC)cc2OC(=O)CC)cc1`, 83.5 °C; with `O=C(c1[nH]ncc1-c1csc(Nc2ncccn2)n1)C1CC1`, 244 °C.
The molecule `CN1CCc2c(c3ccccc3n2CCC(N)=S)C1` came in with a melting point of 149 to 151 °C.
For `CCOC(=O)c1nc(NC)sc1-c1cn2ccccc2n1`, the melting point was 197 to 200 °C.
With `NS(=O)(=O)c1cccc(-c2cn(-c3nc(-c4ccc(C(F)(F)F)cc4)cc(C(F)(F)F)n3)cn2)c1` the figure was 198 °C; with `Cc1cc(O)c(C23CC4CC(CC(C4)C2)C3)cc1Br`, 155 to 156 °C.
As to `N#Cc1c2n(c(=O)n1-c1cc(O)c(Cl)cc1F)CCCC2`, the melting point lay within 204 to 206 °C.
On to `COC(=O)c1ccc(OCCCc2ccccc2)cc1`, for which the melting point lay within 61 to 61.5 °C.
Molecule `CCCN1C(=O)C(NC(=O)Nc2cccc(N(C)c3nnn[nH]3)c2)N=C(N2CCN(C)CC2)c2ccccc21` (single isomer, unassigned; (-)) had a melting point of 141 to 142 °C.
For `CNc1cccc(N)c1C(N)=O` the value was 130 to 132 °C; for `CN(CC#Cc1cc(CN2CCOCC2)cc2c(=O)c(C(=O)NCc3ccc(Cl)cc3)cn(C)c12)CCO`, 148 to 149 °C.
With `O=c1[nH]c2ccccc2c(=O)n1CCS` the figure was 193 to 195 °C.
With `Cc1cc(C)c(C)c(C(=O)Cn2ccnc2)c1C` the figure was 176 to 178 °C.
As for `O=C(Nc1ccc2ccc(Cl)nc2n1)N1CC=CCC1`, the melting point was found to be 173 °C.
For `Cc1c(-c2ccc(Cl)cc2)[nH]c2ccc(OCc3ccccc3)cc12` the value was 134 to 136 °C; for `O=S1NC(Cc2coc3ccc(Cl)cc23)=NO1` (stereo not given), 140 °C.
As for `O=C1C(=O)N(Cc2ccc(F)nc2)c2ccc(S(=O)(=O)N3CC[C@H]3COc3ccccc3)cc21`, the melting point is 177 to 178 °C.
Turning to `COC(=O)CNC(=O)[C@H](NC(=O)OCC1c2ccccc2-c2ccccc21)C(C)C`, the melting point is 148 to 150 °C.
With `Cc1sc(C(=O)OCc2ccccc2)cc1[N+](=O)[O-]` the figure was 57 to 58 °C; with `COc1ccc(CN2C(=O)[C@@H](N3C(=O)c4ccccc4C3=O)[C@H]2CCc2ccccc2)c(OC)c1` (relative stereo), 148 to 150 °C; with `CC(NC(=O)Cc1cc(F)cc(F)c1)C(=O)NC1C(=O)NC(C)c2ccccc21` (stereo not given), 205 to 206 °C.
For `CCCCOc1c(CNC(=O)OC(C)(C)C)n(CC2CC2)c(=O)c2ccc(OCc3ccccc3)cc12` the value was 106 to 107 °C; for `NS(=O)(=O)c1ccc(N2CC(=O)N(C3CCCCC3)C2=O)cc1`, 237 to 238 °C.
Consider `CC(C)(C)OC(=O)NCC/C=C/c1cncnc1`, for which the melting point was in the range of 54 to 55.5 °C.
Regarding `NC(=O)c1cnn2c1NCC=C2c1cccc(F)c1`, the melting point lay within 122 to 125 °C.
In turn, `CCOC(=O)c1cn(-c2cc(N(C)C(=O)OC(C)(C)C)c(F)cc2F)c2c(C)c(F)c(F)cc2c1=O` displayed a melting point of 217 to 218 °C.
In turn, `Cc1sc(-c2ccccc2)nc1COc1ccc(COc2ccccc2CC(=O)O)cc1` showed a melting point of 122 to 123 °C.
With `ClC(Cl)(Cl)C1OCc2ccccc2O1` (stereo not given) the figure was 167 to 169 °C; with `COc1cc2cn(C3CCCCC3)nc2cc1OC`, 100 to 103 °C.
For `O=C(Oc1ccccc1)N1CCC(Sc2ccccc2F)CC1` the value was 58 to 60 °C; for `COc1cccc2nc3[nH]c(=O)[nH]c3cc12`, more than 300 °C; for `Nc1n[nH]c(SCCCO)n1`, 136 to 137 °C.
In turn, `C=CCNC(=Nc1ccc(-c2c[nH]cn2)cc1)S(=O)(=O)O` displayed a melting point of 183 to 184 °C.
`Oc1cc(Br)ccc1Br` gave a melting point of 71 to 74 °C.
With `NNC1=Nc2sc(Cl)cc2C(c2ccccc2)=NC1` the figure was 204 to 207 °C; with `O=CN1CCN(c2nc3cccccc-3n2)CC1`, 170 to 173 °C.
With `COc1ccc(/C(C)=C/c2ccc(C(=O)OCc3ccccc3)cc2)cc1C12CC3CC(CC(C3)C1)C2` the figure was 230 to 240 °C; with `CC(=O)Nc1ccc(S(=O)(=O)C/C=C2/CN3C(=O)C[C@H]3O2)cc1`, 110 to 111 °C; with `COC(=O)[C@H](Cc1ccc(NC(=O)c2c(Cl)cccc2Cl)cc1)NC(=O)c1ccc(C(=O)Nc2cccc(O)c2)cc1Cl`, 230 to 232 °C.
With `CN1C2CCCC1CC(NC(=O)c1cccc3nc(-c4ccccc4)oc13)C2` (stereo not given) the figure was 208 to 210 °C; with `CCC(=O)N(C)c1cccc(-c2nc(=O)c3ccccc3s2)n1`, 201 °C; with `O=S1(=O)c2cccc3cccc(c23)N1CCCN1CCC(c2ccc(Cl)cc2)CC1`, 111 °C.
Regarding `COC(=O)C1=CCC2CC(=O)C12` (stereo not given), the melting point was 58 to 61 °C.
`COc1ccc(C2CC(c3ccccc3OC)=NN2c2ccc(C(=O)O)cc2)cc1` (stereo not given) gave a melting point of 243 °C.
With `CNn1cc(C(=O)O)c(=O)c2cc3c(cc21)OCO3` the figure was more than 300 °C.
With `CCCCCc1cc2c(nc(O)n2CCc2ccccc2)c(N)n1` the figure was 238 to 240 °C; with `O=c1[nH]c2ccccc2cc1-c1csc(-c2cccnc2)n1`, 197 to 198 °C.
